According to patent publication US20130109572A1, “HERBICIDAL COMPOSITIONS AND METHODS OF USE” (The Board of Trustees of the University of Alabama, priority 2010, published 2013):

Assays:
rat = settings: cited from earlier work
[1] = system: white mustard (Sinapis alba L.); assay: Growth chamber spray test, fresh mass of white mustard (Mecoprop ionic liquids); assay type: in vivo; settings: 0.001 M spray in water/ethanol (1:2), 200 L/ha, 2 weeks after application; for Reduction of fresh mass (%): vs unsprayed control
Protocol: The research was conducted under controlled environmental conditions in a dedicated growth chamber. The test plant was white mustard (Sinapis alba L.). Seeds were sown into soil-filled containers equal to the depth of 1 cm. After producing first leave, only 5 plants were allowed to stay in each pot. After producing the 3rd leaf, the plants were sprayed with the ionic liquids studied using a Tee Jet 1102 sprayer, the sprayer moving above the plants at a constant speed of 3.1 m/s. The spray distance from the tips of the plant was 40 cm, the pressure of liquid in sprayer was 0.2 MPa, and a liquid in the expenditure per 1 ha was 200 L.
Examples of the ionic liquids described herein were dissolved in a solution of water and ethanol (1:2) in an amount corresponding to a concentration of 0.001 mol/L, or 0.533 g/L [DDA][MCPP-P], 0.520 g/L [BA][MCPP-P], and 0.546 g/L [DOM] [MCPP-P]. As a comparison, a commercial product containing 600 g of the herbicide Mecoprop-P in 1 L was used. After spraying the plants, the pots were placed back in a growth chamber at a temperature of 20° C. (±2° C.) and humidity of 50%. The illumination time was 16 hours per day.
After a period of 2 weeks, the plants were cut to the soil level and weighed (0.1 g accuracy). A study was carried out in 4 replications in a completely randomized setup. The reduction of plant fresh weight as compared to control (no sprayed plants) was measured.

[2] = system: common poppy (Papaver rhoeas); assay: Growth chamber spray test, fresh weight reduction (Glyphosate ionic liquids); assay type: in vivo; settings: 0.01 mol/L in water; 2 WAT
Protocol: Experiment in growth chamber: Temperature—20° C., humidity—60%, photoperiod (day/night hours)—16/8. The research was conducted under controlled environmental conditions in a dedicated growth chamber. The test plant was common poppy (Papaver rhoeas). The seeds were sown into soil-filled containers equal to the depth of 0.1 cm. After producing leaves, only 1 plant was allowed to stay in each pot. After producing the rosette, the plants were sprayed with the ionic liquids using a sprayer with Tee Jet 1102 nozzles. The sprayer was moving above the plants at a constant speed of 3.1 m/s. The spray distance from the tips of the plant was 40 cm, the pressure of liquid in sprayer was 0.2 MPa, and the liquid in the expenditure per 1 ha was 200 L.
The ionic liquids were dissolved in water in an amount corresponding to a concentration of 0.01 mol/L or 4.94 g/L [DDA][Glyphosate], 4.88 g/L [BA][Glyphosate]. As a comparison, a commercial product ROUNDUP™ containing 360 g of Glyphosate in 1 L was used. After spraying the plants, the pots were placed back in a growth chamber at a temperature of 20° C. (±2° C.) and humidity of 60%. The illumination time was 16 hours per day.
After a period of 2 weeks, the plants were cut right to the soil level and weighed (0.1 g accuracy). Fresh weight was used as the effect parameter. […]

[3] = system: white mustard (Sinapis alba); assay: Growth chamber spray test, fresh weight reduction (Dicamba ionic liquid); assay type: in vivo; settings: for Fresh weight reduction (%) Sinapis alba: 2 WAT
[4] = system: common lambsquarters (Chenopodium album); assay: as above; assay type: in vivo; settings: 2 WAT
[5] = system: cornflower (Centaurea cyanus); assay: Field test, visual effectiveness of weed eradication; assay type: in vivo; settings: field plots, 4 WAT, mean estimate, solutions of 0.01 and 0.02 mol/dm^3, 100% = complete destruction
Protocol: (§1) Field test. The research was conducted in the Field Experimental Station of the Institute of Plant Protection in Winna Gora on the plots of dimensions 1.5 m×5 m. The test plants were common lambsquarters (Chenopodium album) and cornflower (Centaurea cyanus). The investigated ion pairs were alkyltrimethylammonium 3,6-dichloro-2-methoxybenzoate ([ATMA][Dicamba]) and didecyldimethylammonium 3,6-dichloro-2-methoxybenzoate ([DDA][Dicamba]).
(§2) Solutions of investigated ion pairs were prepared as follows: alkyltrimethylammonium 3,6-dichloro-2-methoxybenzoate [ATMA][Dicamba] and didecyldimethylammonium 3,6-dichloro-2-methoxybenzoate [DDA][Dicamba] were dissolved in a mixture of water and ethanol (1:1) in an amount corresponding to a concentration of 0.01 and 0.02 mol/dm^3. […] As controls, objects with no treatment were used and sprayed only with a solution of water and ethanol (1:1).
(§3) The procedures were performed using a sprayer equipped with a flat stream nozzles type Tee Jet 110 03 XR, with a steady pressure of 0.2 MPa and the expense of the liquid in use in 200 L per 1 hectare. During the procedure, the following weeds were at following developmental phases: common lambsquarters—from 4 to 10 leaves; and cornflower—a fully-formed rosette.
(§4) The effectiveness of weed eradication was evaluated visually by comparing the state of weeds on each plot treated with [DDA][Dicamba] and control solution.

[6] = system: common lambsquarters (Chenopodium album); assay: as above; assay type: in vivo; settings: field plots, 4 WAT, mean estimate, solutions of 0.01 and 0.02 mol/dm^3, 100% = complete destruction
Protocol: as §1, §2, §3, §4

[7] = 0.001 mole/L in water/DMSO (2:1)
[8] = 0.002 mole/L in water/DMSO (2:1)
[9] = 0.004 mole/L in water/DMSO (2:1)

For `O=C(O)COc1ccc(Cl)cc1Cl` [Example 2.4-D, 2,4-dichlorophenoxyacetic acid], the “rat LD50” value (rat) is listed as 639 to 764 mg/kg.

In the case of `Cc1cc(Cl)ccc1OCC(=O)O` [MCPA, 4-chloro-2-methylphenoxyacetic acid], the “rat LD50” value (rat) is listed as 962 to 1470 mg/kg.

With “Benzalkonium (±)-2-(4-chloro-2-methylphenoxy)propionate [[BA][MCPP]]” the “Fresh mass of white mustard” value [1] was 5.13 g and the “Reduction of fresh mass (%)” value [1] was 57.8%.

With “Benzalkonium Glyphosate [[BA][Glyphosate]]” the “Fresh weight reduction of Papaver rhoeas (%)” value [2] was 84.0%.

For “Didecyldimethylammonium 3,6-dichloro-2-methoxybenzoate [[DDA][Dicamba]]”, the “Fresh weight reduction (%) Sinapis alba” value [3, 7] was 6.8%, the “Fresh weight reduction (%) Sinapis alba” value [3, 8] was 18.5% and the “Fresh weight reduction (%) Sinapis alba” value [3, 9] was 27.1%. For the same molecule, the “Effect on the weight of Sinapis alba compared with neutral Dicamba” value ([3]; growth chamber, preliminary comparison) was “substantially more active than neutral Dicamba”, the “Fresh weight reduction (%) Chenopodium album” value [4, 7] was 16.7% and the “Fresh weight reduction (%) Chenopodium album” value [4, 8] was 41.7%. For the same molecule, the “Fresh weight reduction (%) Chenopodium album” value [4, 9] was 45.7%, the “Effectiveness of Weed Eradication (%) Centaurea cyanus” value [5] was 95% and the “Effectiveness of Weed Eradication (%) Chenopodium album” value [6] was 92%.

In the case of “Didecyldimethylammonium (+)-(R)-2-(4-chloro-2-methylphenoxy)propionate [[DDA][MCPP-P]]”, the “Fresh mass of white mustard” value [1] is reported as 4.78 g and the “Reduction of fresh mass (%)” value [1] is reported as 60.7%.

In the case of “Didecyldimethylammonium Glyphosate [[DDA][Glyphosate]]”, the “Fresh weight reduction of Papaver rhoeas (%)” value [2] is reported as 78.3%.

In the case of “Domiphen (+)-(R)-2-(4-chloro-2-methylphenoxy)propionate [[DOM][MCPP-P]]”, the “Fresh mass of white mustard” value [1] is reported as 4.08 g and the “Reduction of fresh mass (%)” value [1] is reported as 66.5%.
